Values of other authors in patent US9050351B2, “Topical compositions designed to maintain or restore the integrity of the mucous membranes” (RICEFARMA S.R.L., priority 2010, dated 2015).

Tests used:
[1] = as disclosed in WO93/19730

In the case of C[N+](C)(C)CCOP(=O)([O-])OC[C@H](O)CO [choline alfoscerate, L-alpha-glycerylphosphorylcholine], the “incidence of skin irritation, eye irritation and skin sensitisation” value [1] is listed as “low”, the systemic toxicity [1] is listed as “practically devoid” and the topical tolerability [1] is listed as “marked”. For the same compound, the “solubility in water and ethanol” value was “highly soluble”.
